In the NIST ThermoML archive (doi:10.1021/acs.jced.8b00492):
± gives the expanded uncertainty stated by the source.

Assay: mn = molality of the nth substance listed, in mol/kg
Conditions: for surface tension liquid-gas: Ring tensiometer; for viscosity / speed of sound / mass density: 100 kPa, Liquid; for viscosity: Capillary tube (Ostwald / Ubbelohde) method; for speed of sound: Frequency=3 MHz, Single path-length method; for mass density: Vibrating tube method

C1N2CN3CN1CN(C2)C3 [1,3,5,7-tetraazaadamantane] + O
Conditions	mass density [kg/m3]	speed of sound [m/s]	surface tension liquid-gas [mN/m]	viscosity [mPa·s]
293.15 K, m1 = 0.207	1004.3 ± 2	1493.6 ± 0.7	69.2 ± 0.9	1.075 ± 0.05
293.15 K, m1 = 0.425	1010.5 ± 2	1504.9 ± 0.7	67.4 ± 0.9	1.168 ± 0.05
293.15 K, m1 = 0.654	1016.6 ± 2	1516.5 ± 0.7	66.2 ± 0.9	1.287 ± 0.051
293.15 K, m1 = 0.897	1022.9 ± 2	1528.8 ± 0.7	65.4 ± 0.9	1.419 ± 0.051
293.15 K, m1 = 1.164	1029.5 ± 2	1541.8 ± 0.7	64.8 ± 0.9	1.579 ± 0.051
293.15 K, m1 = 1.449	1036.1 ± 2	1555.9 ± 0.7	64.4 ± 0.9	1.711 ± 0.051
293.15 K, m1 = 1.748	1042.9 ± 2	1569.3 ± 0.7	64 ± 0.9	1.911 ± 0.051
293.15 K, m1 = 2.068	1049.6 ± 2	1583.3 ± 0.7	63.7 ± 0.9	2.142 ± 0.052
293.15 K, m1 = 2.412	1056.3 ± 2	1597.1 ± 0.7	63.5 ± 0.9	2.477 ± 0.052
293.15 K, m1 = 2.779	1063.3 ± 2	1611.8 ± 0.8	63.3 ± 0.9	2.777 ± 0.052
293.15 K, m1 = 3.181	1070.4 ± 2	1626.9 ± 0.8	63.2 ± 0.9	3.217 ± 0.053
293.15 K, m1 = 3.617	1077.6 ± 2	1642.5 ± 0.8	63.1 ± 0.9	3.698 ± 0.054
293.15 K, m1 = 4.088	1084.9 ± 2	1658.4 ± 0.8	63 ± 0.9	4.214 ± 0.056
293.15 K, m1 = 4.609	1092.3 ± 2	1674.7 ± 0.8	62.9 ± 0.9	4.991 ± 0.058
293.15 K, m1 = 5.155	1099.8 ± 2	1691.4 ± 0.8	62.9 ± 0.9	5.869 ± 0.06
303.15 K, m1 = 0.207	1001.6 ± 2	1519 ± 0.7	67.5 ± 0.9	0.88 ± 0.05
303.15 K, m1 = 0.425	1007.7 ± 2	1529.4 ± 0.7	66.1 ± 0.9	0.942 ± 0.05
303.15 K, m1 = 0.654	1013.8 ± 2	1539.3 ± 0.7	65 ± 0.9	1.025 ± 0.05
303.15 K, m1 = 0.897	1019.9 ± 2	1550 ± 0.7	64.2 ± 0.9	1.085 ± 0.05
303.15 K, m1 = 1.164	1026.4 ± 2	1561.1 ± 0.7	63.5 ± 0.9	1.193 ± 0.05
303.15 K, m1 = 1.449	1032.9 ± 2	1573.6 ± 0.7	62.9 ± 0.8	1.309 ± 0.051
303.15 K, m1 = 1.748	1039.4 ± 2	1585 ± 0.7	62.5 ± 0.8	1.472 ± 0.051
303.15 K, m1 = 2.068	1046 ± 2	1597.4 ± 0.7	62.2 ± 0.8	1.631 ± 0.051
303.15 K, m1 = 2.412	1052.9 ± 2	1609.3 ± 0.7	61.9 ± 0.8	1.875 ± 0.051
303.15 K, m1 = 2.779	1059.7 ± 2	1622.1 ± 0.7	61.7 ± 0.8	2.094 ± 0.051
303.15 K, m1 = 3.181	1066.6 ± 2	1635.2 ± 0.8	61.5 ± 0.8	2.402 ± 0.052
303.15 K, m1 = 3.617	1073.6 ± 2	1648.7 ± 0.8	61.4 ± 0.8	2.743 ± 0.052
303.15 K, m1 = 4.088	1080.8 ± 2	1662.4 ± 0.8	61.3 ± 0.8	3.092 ± 0.053
303.15 K, m1 = 4.609	1088 ± 2	1676.5 ± 0.8	61.2 ± 0.8	3.635 ± 0.054
303.15 K, m1 = 5.155	1095 ± 2	1690.9 ± 0.8	61.2 ± 0.8	4.21 ± 0.056
313.15 K, m1 = 0.207	998 ± 2	1538 ± 0.7	66.3 ± 0.9	0.718 ± 0.05
313.15 K, m1 = 0.425	1004.1 ± 2	1546.6 ± 0.7	64.7 ± 0.9	0.761 ± 0.05
313.15 K, m1 = 0.654	1010.1 ± 2	1555.4 ± 0.7	63.5 ± 0.9	0.806 ± 0.05
313.15 K, m1 = 0.897	1016.1 ± 2	1565 ± 0.7	62.8 ± 0.8	0.87 ± 0.05
313.15 K, m1 = 1.164	1022.5 ± 2	1574.7 ± 0.7	62.1 ± 0.8	0.936 ± 0.05
313.15 K, m1 = 1.449	1028.9 ± 2	1585.8 ± 0.7	61.5 ± 0.8	1.017 ± 0.05
313.15 K, m1 = 1.748	1035.4 ± 2	1595.6 ± 0.7	61.1 ± 0.8	1.158 ± 0.05
313.15 K, m1 = 2.068	1041.8 ± 2	1606.6 ± 0.7	60.7 ± 0.8	1.26 ± 0.051
313.15 K, m1 = 2.412	1048.3 ± 2	1616 ± 0.7	60.5 ± 0.8	1.441 ± 0.051
313.15 K, m1 = 2.779	1055 ± 2	1627.1 ± 0.7	60.3 ± 0.8	1.597 ± 0.051
313.15 K, m1 = 3.181	1061.8 ± 2	1638.5 ± 0.8	60.2 ± 0.8	1.82 ± 0.051
313.15 K, m1 = 3.617	1068.7 ± 2	1650.1 ± 0.8	60.1 ± 0.8	2.063 ± 0.051
313.15 K, m1 = 4.088	1075.6 ± 2	1661.9 ± 0.8	60 ± 0.8	2.296 ± 0.052
313.15 K, m1 = 4.609	1082.7 ± 2	1674 ± 0.8	59.9 ± 0.8	2.687 ± 0.052
313.15 K, m1 = 5.155	1089.8 ± 2	1687.2 ± 0.8	59.9 ± 0.8	3.084 ± 0.053
323.15 K, m1 = 0.207	993.9 ± 2	1549.2 ± 0.7	65.1 ± 0.9	0.596 ± 0.05
323.15 K, m1 = 0.425	999.7 ± 2	1557.4 ± 0.7	63.4 ± 0.8	0.635 ± 0.05
323.15 K, m1 = 0.654	1005.6 ± 2	1566.1 ± 0.7	62.1 ± 0.8	0.671 ± 0.05
323.15 K, m1 = 0.897	1011 ± 2	1574.4 ± 0.7	61.2 ± 0.8	0.716 ± 0.05
323.15 K, m1 = 1.164	1018 ± 2	1583 ± 0.7	60.5 ± 0.8	0.755 ± 0.05
323.15 K, m1 = 1.449	1024.3 ± 2	1593.1 ± 0.7	60.1 ± 0.8	0.819 ± 0.05
323.15 K, m1 = 1.748	1030.7 ± 2	1601.3 ± 0.7	59.7 ± 0.8	0.908 ± 0.05
323.15 K, m1 = 2.068	1037.1 ± 2	1611.1 ± 0.7	59.5 ± 0.8	0.985 ± 0.05
323.15 K, m1 = 2.412	1043.5 ± 2	1620 ± 0.7	59.2 ± 0.8	1.131 ± 0.05
323.15 K, m1 = 2.779	1050.1 ± 2	1629.6 ± 0.7	59 ± 0.8	1.233 ± 0.051
323.15 K, m1 = 3.181	1056.8 ± 2	1639.4 ± 0.8	58.9 ± 0.8	1.387 ± 0.051
323.15 K, m1 = 3.617	1063.5 ± 2	1649.3 ± 0.8	58.8 ± 0.8	1.569 ± 0.051
323.15 K, m1 = 4.088	1070.4 ± 2	1659.4 ± 0.8	58.7 ± 0.8	1.77 ± 0.051
323.15 K, m1 = 4.609	1077.3 ± 2	1669.7 ± 0.8	58.6 ± 0.8	2.027 ± 0.051
323.15 K, m1 = 5.155	1084.2 ± 2	1680.2 ± 0.8	58.6 ± 0.8	2.327 ± 0.052
